Experimental data: ChEMBL document CHEMBL1135264, “Thalidomide and its analogues as cyclooxygenase inhibitors” (Bioorg Med Chem Lett, 2002)
Calls of active or inactive are those of the source. No cut-off for these calls is given here.

How the values were obtained:
[1] = target: T1, Prostaglandin G/H synthase 1 (Ovis aries) (UniProt P05979); experiment: Selective index (SI) which is the ratio of IC50 of Prostaglandin G/H synthase 1 / […]
T1 sequence (whole entry): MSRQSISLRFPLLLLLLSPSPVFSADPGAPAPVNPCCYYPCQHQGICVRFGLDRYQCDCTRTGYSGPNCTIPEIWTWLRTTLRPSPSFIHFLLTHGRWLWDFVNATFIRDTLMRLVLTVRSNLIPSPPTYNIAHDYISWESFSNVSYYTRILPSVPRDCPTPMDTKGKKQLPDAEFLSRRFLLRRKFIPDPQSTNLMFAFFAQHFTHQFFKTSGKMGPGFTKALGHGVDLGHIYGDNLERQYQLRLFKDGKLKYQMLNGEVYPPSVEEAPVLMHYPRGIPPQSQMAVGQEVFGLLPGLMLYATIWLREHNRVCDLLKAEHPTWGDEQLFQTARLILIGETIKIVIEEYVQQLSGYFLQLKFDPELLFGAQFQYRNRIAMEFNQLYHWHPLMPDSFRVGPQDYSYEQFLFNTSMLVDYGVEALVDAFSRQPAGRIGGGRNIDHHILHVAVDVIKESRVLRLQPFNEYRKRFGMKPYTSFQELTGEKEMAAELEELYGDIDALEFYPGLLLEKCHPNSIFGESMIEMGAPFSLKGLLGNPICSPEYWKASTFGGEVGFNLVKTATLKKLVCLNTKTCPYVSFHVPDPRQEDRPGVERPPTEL

[2] = target: T1, Prostaglandin G/H synthase 1 (Ovis aries); experiment: Selective index (SI) which is the ratio of IC50 of Prostaglandin G/H synthase 1 / […]; IN=Inactive
[3] = target: T2, Prostaglandin G/H synthase 1 (Ovis aries, UniProt P05979); experiment: Inhibitory activity (RA1) against Prostaglandin G/H synthase 1 was calculated relative to aspirin
T2 sequence (P05979 whole entry): T1 sequence (whole entry)

[4] = target: T3, Prostaglandin G/H synthase 2 (Ovis aries, UniProt P79208); experiment: Inhibitory activity (RA2) against Prostaglandin G/H synthase 2 was calculated relative to aspirin
T3 sequence (P79208 whole entry): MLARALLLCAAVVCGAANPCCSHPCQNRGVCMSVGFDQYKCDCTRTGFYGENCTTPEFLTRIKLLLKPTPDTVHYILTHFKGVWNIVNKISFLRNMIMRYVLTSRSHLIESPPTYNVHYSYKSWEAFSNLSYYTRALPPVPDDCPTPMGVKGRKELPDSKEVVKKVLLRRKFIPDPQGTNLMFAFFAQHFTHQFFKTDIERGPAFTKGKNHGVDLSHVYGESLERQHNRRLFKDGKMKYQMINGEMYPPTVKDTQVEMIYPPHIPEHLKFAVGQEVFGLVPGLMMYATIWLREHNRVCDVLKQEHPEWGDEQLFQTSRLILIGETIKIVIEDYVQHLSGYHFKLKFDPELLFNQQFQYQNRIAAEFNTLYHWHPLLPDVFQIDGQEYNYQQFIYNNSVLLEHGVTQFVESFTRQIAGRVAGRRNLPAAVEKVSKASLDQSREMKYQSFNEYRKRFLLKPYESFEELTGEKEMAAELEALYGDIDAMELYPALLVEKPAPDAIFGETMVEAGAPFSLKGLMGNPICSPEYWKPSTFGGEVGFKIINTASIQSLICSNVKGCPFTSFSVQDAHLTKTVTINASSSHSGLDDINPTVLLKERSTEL

Row | Compound | Ratio [1] | other results
1 | Cc1cc(C)c(C)c(N2C(=O)c3ccccc3C2=O)c1C | 4.16 | –
2 | COc1cc(C)nc(N2C(=O)Cc3ccccc3C2=O)n1 | 0.45 | –
3 | Cc1cc(C)nc(N2C(=O)Cc3ccccc3C2=O)c1 | 0.51 | –
4 | O=C1c2ccccc2C(=O)N1c1cnc(O)nc1O | 7.69 | –
5 | Cc1cc(C)cc(N2C(=O)Cc3ccccc3C2=O)c1 | 0.39 | –
6 | Cc1cc(C)c(C)c(N2C(=O)c3ccccc3C2=O)c1 | 4.05 | –
7 | Cc1cc(C)nc(N2C(=O)Cc3ccccc3C2=O)n1 | 0.45 | –
8 | C[C@]1(N2C(=O)c3ccccc3C2=O)CCC(=O)NC1=O | – | Ratio [2]: inactive; IC50 [3]: Not Active; IC50 [4]: Not Active
9 | Cc1cc(C)cc(N2C(=O)c3ccccc3C2=O)c1 | 2.14 | –
10 | COc1cc(OC)nc(N2C(=O)Cc3ccccc3C2=O)n1 | 0.38 | –

Further lines, with some results ahead:

Row | Ratio [1] | Compound | other results
11 | 0.44 | O=C1c2ccccc2C(=O)N1CCn1ccc(=O)[nH]c1=O | –
12 | 2.63 | C[C@@]1(N2C(=O)c3ccc([N+](=O)[O-])cc3C2=O)CCC(=O)NC1=O | –
13 | 0.23 | C[C@@]1(N2C(=O)c3cccc([N+](=O)[O-])c3C2=O)CCC(=O)NC1=O | –
14 | < 0.07 | C[C@@]1(N2C(=O)c3ccc(N)cc3C2=O)CCC(=O)NC1=O | –
15 | 1.45 | O=C1CCN(N2C(=O)c3ccccc3C2=O)C(=O)N1 | –
16 | 1.43 | O=C1NCCCC1N1C(=O)c2ccccc2C1=O (stereo unspecified) | –
17 | 1.23 | O=C1CCC(N2C(=O)c3ccccc3C2=O)C(=O)N1 (stereo unspecified) | –
18 | 11.1 | C[C@@]1(N2C(=O)c3cccc(N)c3C2=O)CCC(=O)NC1=O | –
19 | 2.56 | C[C@@]1(N2C(=O)c3ccccc3C2=O)CCC(=O)NC1=O | –
